Measured values reported in patent US12558338B2, “Pharmaceutical composition” (SUNSHINE LAKE PHARMA CO., LTD., priority 2019, dated 2026).

Test: Solubility in water
Type: physicochemical
Settings: compared with memantine hydrochloride

## CC12CC3CC(C)(C1)CC(NC(=O)OCOC(=O)c1ccccc1)(C3)C2 [formula A, ((((1r,3R,5S,7r)-3,5-dimethyladamantan-1-yl)carbamoyl)oxy)methyl benzoate]
  solubility: almost insoluble in water
